Laboratory results as given in article PMC7465636 (Biomolecules, 2020).
Read-outs that look alike come from different tables or passages of the source.

What was measured:
P. falciparum 3D7 = assay: In vitro growth assay with flow cytometry, P. falciparum 3D7; assay type: cell-based, Plasmodium falciparum
Description: (§1) Erythrocytes infected with P. falciparum 3D7 and the knockout strain for the PfSR25 receptor (PfSR25-) were kept in 175 cm^2 culture bottles (Greiner Bio-One) containing RPMI 1640 with 0.5% NaHCO3, 0.04% sulfate gentamicin, 0.05% hypoxanthine and supplemented with 0.5% AlbuMAX I (Gibco). The culture bottles were maintained at 37 °C and an atmosphere with 90% N2, 5% O2 and 5% CO2 Parasitemia was determined from a blood smear stained with Panotic Rapid (Laborclin).
(§2) Red blood cells infected with P. falciparum (iRBC) asynchronously with 0.3% initial parasitemia and 1% hematocrit were incubated with different concentrations of compounds ranging from 0.0488 µM to 50 µM, for 72 h at 37 °C under mixture of gases. The control group was treated with solvent Dimethyl Sulfoxide (DMSO) (v/v); with the highest concentration of solvent bring 0.25%.
(§3) Parasitemia was determined from the dot plots (side scatter versus fluorescence) of at least […] acquired on an Accuri C6 flow cytometer (Becton Dickinson). Initial gating was carried out with unstained, uninfected erythrocytes to account for erythrocyte autofluorescence.
(§4) After 72 h, iRBCs were stained with nucleic acid marker SYBR Green I (1X) (Invitrogen) and mitochondria marker based on membrane potential MitoTracker Deep Red (50 nM) (Invitrogen), and were incubated for 20 min. at 37 °C. The final parasitemia was obtained by flow cytometer using a BD Accuri C6 Flow Cytometer, collecting 10^³ cells. Dot plots using FlowJo V10.6.2 software determined Parasitemia. At least three independent experiments were performed in triplicate to calculate the IC50 values for each drug.
In order to identify potential antimalarials present in the library of compounds derived from the 1H-1,2,3-triazoles and 2H-1,2,3-triazoles, we used a culture of P. falciparum (3D7) to perform the screening tests of the compounds. To assess parasitemia at the end of the parasites incubation with the compounds for 72 h, we used a double-label: (1) SYBR Green I to mark DNA and (2) MitoTracker Deep Red as a mitochondria marker. The latter being dependent on the membrane potential, we ensured that only the marking and selection of viable parasites occurred.

[1] = tested on: P. falciparum PfSR25- (knockout strain for the PfSR25 receptor); assay: In vitro growth assay with flow cytometry, PfSR25- knockout strain; assay type: cell-based, Plasmodium falciparum; settings: for IC50: 72 h; for IC50 for the knockout strain compared with the 3D7 strain: PfSR25- versus 3D7
Description: as §1, §2, §3, §4
We also assessed the role of PfSR25 in terms of its susceptibility to compounds with a better antimalarial activity (9, 13, 19, 21, 22, 24 and 29) and compounds with less activity (21) based on the results obtained with the 3D7 screening. Thus, the tests were carried out like that described above and are represented in Figure 5. However, we used the knockout strain for the receptor-like PfSR25- for the tests.

HEK293 cells = assay type: cell-based, human; settings: 72 h; for survival of HEK293 cells (MTT): 0.0488–50 µM; for toxicity in HEK 293 cells (MTT): at the tested concentrations (0.0488–50 µM)
Description: Human Embryonic Kidney Cells (HEK293) were kept in 75 cm^2 culture bottles (Greiner Bio-One) at 37 °C, 5% CO2 containing Dulbecco’s Minimal Essential Medium (DMEM), added with 10% fetal bovine serum, 1% Streptomycin and Penicillin and 3.7 g/L of NaHCO3 (Sigma). Cell passages were performed with trypsin-EDTA (Invitrocell). The number of cells was monitored by counting in a Neubauer chamber.
To evaluate the toxicity of the triazole compounds in mammalian cells, Human Embryonic Kidney cells (HEK293). Cells were plated in flat-bottom 96-well plates at a density of 10^4 cells per well and incubated for 24 h in 150 µL media at 37 °C, 5% CO2. Cells were then treated with different concentrations of each compound, ranging from 0.0488 µM to 50 µM in 200 µL DMEM for 72 h at 37 °C and 5% CO2. Cells treated with DMSO (v/v), with the highest concentration of solvent at 0.25% were used as control. After incubation, 40 µL of MTT reagent (solution 5 mg/mL in PBS) was added to each well, and cells were incubated for further 3 h at 37 °C and 5%CO2 [35]. The media was removed, and 100 µL of DMSO was added in each well. The plates were agitated in a shaker for 10 min to dissolve precipitates. The absorbance was read at 570 nm in a FlexStation 3 (Molecular Devices). Three experiments were performed independently in triplicates.

[2] = assay type: physicochemical; settings: in our experimental conditions
From the text: The methods used to prepare the 1-aryl-1H-1,2,3-triazoles and 2-aryl-2H-1,2,3-triazoles (54 examples) involved classical chemical transformations, and all evaluated compounds were from the group’s molecular bank and were present in other published works. […] This information can be important for future studies.

[3] = Plasmodium falciparum, 3D7, 72 h, P. falciparum 3D7, 72 h, 0.0488–50 µM, ± standard error of the mean, read-out: IC50
[4] = P. falciparum 3D7, 72 h, 0.0488–50 µM, ± standard error of the mean, read-out: IC50

| Compound | IC50 (P. falciparum 3D7; [3]) | IC50 (P. falciparum 3D7; [4]) | further results |
| --- | --- | --- | --- |
| C[C@@H]1CC[C@H]2[C@@H](C)C(=O)O[C@@H]3O[C@@]4(C)CC[C@@H]1[C@]32OO4 [Artemisinin, reference compound] | – | – | IC50 (P. falciparum 3D7; Plasmodium falciparum, 3D7, 72 h, 3D7, positive control […] to 160 nM, 72 h, unit inferred, read-out: IC50 (dose-response curve, Figure 3A)): 0.0062 ± 0.00073 µM; IC50 ([1]; Plasmodium falciparum, read-out: IC50 (dose-response curve, Figure 3B)): 0.0058 ± 0.00172 µM |
| CCOCc1cn(-c2ccc(Cl)cc2)nn1 [Compound 1] | 11.7 ± 0.74 µM | – | – |
| CCOCc1cn(-c2cc(Cl)cc(Cl)c2)nn1 [Compound 2] | 15.4 ± 2.26 µM | – | – |
| CCCOCc1cn(-c2cc(Cl)cc(Cl)c2)nn1 [Compound 3] | 14.5 ± 1.71 µM | – | – |
| CCCOCc1cn(-c2cc(Cl)ccc2Cl)nn1 [Compound 4] | 20.4 ± 0.73 µM | – | – |
| CCCCOCc1cn(-c2cc(Cl)cc(Cl)c2)nn1 [Compound 5] | 23.9 ± 2.01 µM | – | – |
| CCOC(=O)c1cn(-c2ccccc2)nn1 [Compound 6] | 12.8 ± 3.02 µM | – | – |
| O=C(OCc1cn(-c2ccccc2)nn1)c1ccccc1 [Compound 7] | 22.9 ± 0.34 µM | – | – |
| O=C(OCc1cnn(-c2ccccc2)n1)c1ccccc1 [Compound 8] | > 25 µM | 27.5 ± 1.26 µM | – |
| CCCCCCCCCC(=O)OCc1cn(-c2ccc(Cl)cc2)nn1 [Compound 9] | – | – | IC50 for the knockout strain compared with the 3D7 strain [1]: lower IC50 values for the knockout strain; IC50 ([1]; Plasmodium falciparum): 1.55 ± 0.55 µM; survival of HEK293 cells (MTT) (HEK293 cells): above 80%; toxicity in HEK 293 cells (MTT) (HEK293 cells): no toxicity |
| CCCCCCCCCC(=O)OCc1cn(-c2cc(Cl)cc(Cl)c2)nn1 [Compound 10] | 14.6 ± 0.29 µM | – | – |
| CCCCCCCCCC(=O)OCc1cn(-c2ccc(OC)cc2)nn1 [Compound 11] | 23.5 ± 2.77 µM | – | – |
| COc1ccc(-n2cc(COC(=O)c3ccccc3)nn2)cc1 [Compound 12] | 13.5 ± 1.12 µM | – | – |
| ON=Cc1cn(-c2ccc(Cl)cc2)nn1 [Compound 13] | < 10 µM | 6.67 ± 1.86 µM | IC50 for the knockout strain compared with the 3D7 strain [1]: lower IC50 values for the knockout strain; IC50 ([1]; Plasmodium falciparum): 0.89 ± 0.39 µM; survival of HEK293 cells (MTT) (HEK293 cells): above 80%; toxicity in HEK 293 cells (MTT) (HEK293 cells): no toxicity |
| O/N=C/c1cn(-c2cc(Cl)ccc2Cl)nn1 [Compound 14] | 21.5 ± 0.84 µM | – | – |
| C(=N\Nc1ccccc1)/c1cnn(-c2ccccc2)n1 [Compound 15] | 18.1 ± 1.92 µM | – | – |
| Clc1ccc(N/N=C/c2cnn(-c3ccccc3)n2)cc1 [Compound 16] | < 10 µM | 9.29 ± 1.01 µM | – |

| Compound | IC50 (P. falciparum 3D7; [3]) | IC50 (P. falciparum 3D7; [4]) | further results |
| --- | --- | --- | --- |
| Fc1ccc(N/N=C/c2cnn(-c3ccccc3)n2)cc1 [Compound 17] | 14.7 ± 1.28 µM | – | – |
| Clc1ccc(N/N=C/c2cn(-c3ccc(Cl)cc3)nn2)cc1 [Compound 18] | 17.6 ± 1.07 µM | – | – |
| Fc1ccc(N/N=C/c2cn(-c3ccc(Cl)cc3)nn2)cc1 [Compound 19] | < 10 µM | 8.45 ± 2.25 µM | IC50 for the knockout strain compared with the 3D7 strain [1]: lower IC50 values for the knockout strain; IC50 ([1]; Plasmodium falciparum): 2.24 ± 0.77 µM; survival of HEK293 cells (MTT) (HEK293 cells): above 80%; toxicity in HEK 293 cells (MTT) (HEK293 cells): no toxicity |
| Clc1ccc(-n2cc(/C=N/Nc3cc(Cl)ccc3Cl)nn2)cc1 [Compound 20, (E)-1-(4-chlorophenyl)-4-((2-(2,5-dichlorophenyl)hydrazono)methyl)-1H-1,2,3-triazole] | 13.6 ± 1.2 µM | – | melting point: 181 to 182 °C |
| Clc1cc(Cl)cc(-n2cc(/C=N/Nc3ccc(Br)cc3)nn2)c1 [Compound 21, (E)-4-((2-(4-bromophenyl)hydrazono)methyl)-1-(3,5-dichlorophenyl)-1H-1,2,3-triazole] | > 25 µM | 29.3 ± 0.34 µM | IC50 for the knockout strain compared with the 3D7 strain [1]: lower IC50 values for the knockout strain; IC50 ([1]; Plasmodium falciparum): 12.4 ± 2.51 µM |
| Cc1ccc(C)c(N/N=C/c2cn(-c3cc(Cl)cc(Cl)c3)nn2)c1 [Compound 23] | < 10 µM | 9.23 ± 1.68 µM | – |
| COc1ccc(-n2cc(/C=N/Nc3ccccc3)nn2)cc1 [Compound 24] | – | – | IC50 for the knockout strain compared with the 3D7 strain [1]: lower IC50 values for the knockout strain; IC50 ([1]; Plasmodium falciparum): 0.99 ± 0.25 µM; survival of HEK293 cells (MTT) (HEK293 cells): above 80%; toxicity in HEK 293 cells (MTT) (HEK293 cells): no toxicity |
| COc1ccc(-n2cc(/C=N/Nc3ccc(Cl)cc3)nn2)cc1 [Compound 25, (E)-4-((2-(4-chlorophenyl)hydrazono)methyl)-1-(4-methoxyphenyl)-1H-1,2,3-triazole] | < 10 µM | 9 ± 3.27 µM | – |
| Clc1ccc(Cl)c(N/N=C/c2cn(-c3cc(Cl)ccc3Cl)nn2)c1 [Compound 26, (E)-1-(2,5-dichlorophenyl)-4-((2-(2,5-dichlorophenyl)hydrazono)methyl)-1H-1,2,3-triazole] | < 10 µM | 9.4 ± 2.87 µM | melting point: 200 to 201 °C |
| O=C(N/N=C/c1cn(-c2ccccc2)nn1)c1ccncc1 [Compound 27] | 23.1 ± 2.58 µM | – | – |
| O=C(N/N=C/c1cn(-c2ccc(Cl)cc2)nn1)c1ccncc1 [Compound 28] | 14.5 ± 1.13 µM | – | – |
| O=C(N/N=C/c1cn(-c2cc(Cl)cc(Cl)c2)nn1)c1ccncc1 [Compound 29, (E)-N′-((1-(3,5-dichlorophenyl)-1H-1,2,3-triazol-4-yl)methylene)isonicotinohydrazide] | < 10 µM | 6.96 ± 1.44 µM | IC50 ([1]; Plasmodium falciparum): 9.91 ± 2.94 µM; survival of HEK293 cells (MTT) (HEK293 cells): above 80%; toxicity in HEK 293 cells (MTT) (HEK293 cells): no toxicity |
| COc1ccc(-n2cc(/C=N/NC(=O)c3ccncc3)nn2)cc1 [Compound 30] | 23.2 ± 1.94 µM | – | – |
| O=C(N/N=C/c1cnn(-c2ccccc2)n1)c1ccncc1 [Compound 31] | 20.2 ± 0.79 µM | – | – |
| COc1ccc(-n2cc(/C=N/Nc3cc(C)ccc3C)nn2)cc1 [Compound 54, (E)-4-((2-(2,5-dimethylphenyl)hydrazono)methyl)-1-(4-methoxyphenyl)-1H-1,2,3-triazole] | – | – | solubilization [2]: weren’t able to be solubilized |
| (E)-1-(3,5-dichlorophenyl)-4-((2-(2,5-dimethylphenyl)hydrazono)methyl)-1H-1,2,3-triazole [Compound 22] | – | 5.56 ± 0.47 µM | IC50 ([1]; PfSR25- knockout strain, ± standard error of the mean, read-out: IC50): 4.41 ± 0.6 µM; IC50 for the knockout strain compared with the 3D7 strain [1]: lower IC50 values for the knockout strain; survival of HEK293 cells (MTT) (HEK293 cells): above 80%; toxicity in HEK 293 cells (MTT) (HEK293 cells): no toxicity |
